Assays:
[1] = target: T1, HCV NS3/4A protease complex (Hepatitis C virus genotype 1a, UniProt P27958, C1454S/C1711G); test: FRET peptide assay to monitor HCV NS3/4A proteolytic activity; assay type: biochemical
T1 construct: DNA encoding the recombinant HCV NS3/4A protease complex (amino acids 1027 to 1711) for these strains were manipulated; inferred from pET21b vector and Ni-NTA purification; made in house; host or cells: Escherichia coli BL21 (DE3), pET21b vector
Source text: HCV NS3 protease complexes, derived from the BMS strain, H77 strain or J4L6S strain, were generated, as described below. These purified recombinant proteins were generated for use in a homogeneous assay (see below) to provide an indication of how effective compounds of the present disclosure would be in inhibiting HCV NS3 proteolytic activity.
Serum from an HCV-infected patient was obtained from Dr. T. Wright, San Francisco Hospital. An engineered full-length cDNA (compliment deoxyribonucleic acid) template of the HCV genome (BMS strain) was constructed from DNA fragments obtained by reverse transcription-PCR (RT-PCR) of serum RNA (ribonucleic acid) and using primers selected on the basis of homology between other genotype 1a strains. From the determination of the entire genome sequence, a genotype 1a was assigned to the HCV isolate according to the classification of Simmonds et al. (See P Simmonds, K A Rose, S Graham, S W Chan, F McOmish, B C Dow, E A Follett, P L Yap and H Marsden, J. Clin. Microbiol., 31(6), 1493-1503 (1993)). […]

[2] = tested on: HCV replicon in HUH-7 cells; test: HCV replicon FRET assay (confirmed in replicon luciferase reporter assay); assay type: cell-based; settings: Hepatitis C virus, 96 h; HUH-7 cells constitutively expressing HCV 1b replicon, 4 days incubation
Source text: An HCV replicon whole cell system was established as described by Lohmann V, Korner F, Koch J, Herian U, Theilmann L, Bartenschlager R., Science 285(5424):110-3 (1999). This system enabled us to evaluate the effects of our HCV Protease compounds on HCV RNA replication. Briefly, using the HCV strain 1b sequence described in the Lohmann paper (Accession number: AJ238799), an HCV cDNA was synthesized by Operon Technologies, Inc. (Alameda, Calif.), and the full-length replicon was then assembled in plasmid pGem9zf(+) (Promega, Madison, Wis.) using standard molecular biology techniques. […]
The HCV replicon FRET assay was developed to monitor the inhibitory effects of compounds described in the disclosure on HCV viral replication. […] After 4 days, cells were first assessed for cytotoxicity using alamar Blue (Trek Diagnotstic Systems) for a CC50 reading. The toxicity of compound (CC50) was determined by adding 1/10th volume of alamar Blue to the media incubating the cells. After 4 h, the fluorescence signal from each well was read, with an excitation wavelength at 530 nm and an emission wavelength of 580 nm, using the Cytofluor Series 4000 (Perspective Biosystems). […]

T1 sequence (P27958 1027-1711 C1454S/C1711G, one chain of several): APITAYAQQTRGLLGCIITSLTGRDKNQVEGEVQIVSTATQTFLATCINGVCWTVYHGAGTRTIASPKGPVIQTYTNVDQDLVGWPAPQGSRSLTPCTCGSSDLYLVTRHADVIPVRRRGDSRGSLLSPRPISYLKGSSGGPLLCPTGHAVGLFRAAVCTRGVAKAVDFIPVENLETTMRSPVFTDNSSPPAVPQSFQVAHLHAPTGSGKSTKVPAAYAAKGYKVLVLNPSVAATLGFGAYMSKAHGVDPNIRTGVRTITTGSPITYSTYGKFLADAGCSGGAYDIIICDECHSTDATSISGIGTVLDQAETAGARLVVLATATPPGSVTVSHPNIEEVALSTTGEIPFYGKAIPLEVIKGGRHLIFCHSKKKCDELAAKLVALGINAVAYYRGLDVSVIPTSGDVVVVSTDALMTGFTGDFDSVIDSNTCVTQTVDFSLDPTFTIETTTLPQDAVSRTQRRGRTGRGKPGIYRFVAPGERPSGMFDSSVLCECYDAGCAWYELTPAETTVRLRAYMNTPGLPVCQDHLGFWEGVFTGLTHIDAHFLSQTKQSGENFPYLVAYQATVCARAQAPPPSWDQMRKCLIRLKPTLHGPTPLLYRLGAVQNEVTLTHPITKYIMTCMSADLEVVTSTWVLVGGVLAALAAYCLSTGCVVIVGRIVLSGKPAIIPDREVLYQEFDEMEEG

CC(C)(C)OC(=O)N[C@H]1CCCCC/C=C\C2C[C@@]2(C(=O)NS(=O)(=O)C2CC2)NC(=O)[C@@H]2C[C@@H](c3ccccc3)CN2C1=O (stereo partly shown) [Compound 1]
IC50 [1]: 18 nM | EC50 [2]: 639 nM

CC(C)(C)OC(=O)N[C@H]1CCCCC/C=C\[C@@H]2C[C@@]2(C(=O)NS(=O)(=O)C2CC2)NC[C@@H]2C[C@@](O)(c3ccccc3)CN2C1=O [Compound 2]
IC50 [1]: 9 nM | EC50 [2]: 389 nM

Source: patent US8003604B2, “Hepatitis C virus inhibitors” (priority 2006, dated 2011)
